Measurements taken from patent publication US9283277B2, “Methods and compositions for the treatment of obesity” (Children's Medical Center Corporation, priority 2008, dated 2016).

Tests used:
[1] = test system: blood brain barrier; assay: Blood brain barrier permeability with Fluoro-gold in PBA-treated HFD-fed mice; format: in vivo; conditions: HFD-fed wt male mice; PBA 12 days; Fluoro-gold IP 15 mg/kg
Experimental: Leptin resistance in obesity arises due to both impairment of leptin action in the hypothalamus and defects in the transport of leptin in the blood brain barrier^14,42. […] Three days after the injections, mice were anesthetized and perfused with saline and then 4% paraformaldehyde. After the fixation, brains were removed. Following the necessary further fixation and sectioning, Fluoro-gold staining was performed on the whole brain slices. […] Reactivity against the Fluoro-gold is not different between the vehicle and PBA-treated groups. Fluoro-gold-labeled neurons should be present in the areas like ventro-medial hypothalamus (VMH), dorso-medial hypothalamus (DMH) and lateral hypothalamic area (LHA), if the BBB permeability is perturbed. […] (data not shown)

[2] = test system: HFD-fed obese mice; assay: PBA alone in HFD-fed or ND-fed mice: bodyweight, hypothalamic PERK and leptin-stimulated Stat3 phosphorylation; format: in vivo
Experimental: (§1) C57BL/6 mice that were kept on high fat diet feeding for 25 weeks were either treated with vehicle or PBA (1 g/kg/day) for 10 days. Following the pretreatment period mice were given daily leptin (5 mg/kg/day, IP) treatment. (a) Bodyweight (g), (b) % decrease in the bodyweight, and (c) 24 hour food intake (g) during the 30 days of leptin administration. Metabolic cage analysis was performed after 25 days of treatment (d) O2 consumption (ml/kg/hr), (e) CO2 production (ml/kg/hr), (f) X-axis ambulatory activity, (g) Respiratory exchange ratio (VCO2/VO2), (h) Heat generation (kcal/hr). Dexa scan analysis of (i) Lean body mass (g), (j) Fat % and (k) Total fat amount (g). C57BL6 mice were fed a HFD for a period of 25 weeks and then either treated with PBA (1 g/kg) or VEH for 16 days. (1) PERK phosphorylation in the hypothalamus extracts. (m) Leptin-stimulated Stat3^Tyr705 phosphorylation in the VEH and PBA-treated HFD-fed mice. (n) C57BL6 mice were fed a ND for a period of 25 weeks and then either treated with PBA (1 g/kg) or VEH for 16 days. Following the treatment period mice were starved for six hours and subsequently injected with leptin (IP, 1 mg/kg). Stat3^Tyr705 phoshorylation and total Stat levels were examined in the hypothalamus extracts. (n=6 in each group). Error bars are ±S.E.M., P values are determined by Student's t-test. (*p<0.05, **p<0.01, ***p<0.001)
Mice were fed a HFD (60%) for 25 weeks and following an acclimation PBA (1 gr/kg/day) and vehicle treatment was initiated. (a) Bodyweight, (b) % decrease in bodyweight and (c) daily food intake of VEH and PBA-treated HFD-fed obese mice were analyzed during the 16 days of treatment period. (n=5 in each group) Error bars are ±S.E.M., P values are determined by Student's t-test (*p<0.05, **p<0.01, ***p<0.001).
To investigate whether PBA treatment reduces the ER stress, we analyzed the PERK phosphorylation in the HFD-fed mice, which were either treated with VEH or PBA for 16 days. […] To investigate whether leptin-stimulated activation of LepRB signaling is increased in the hypothalamus of the PBA-treated HFD-fed obese mice, we intraperitoneally injected leptin (0.75 mg/kg) following a six-hour fast and analyzed the Stat3^Tyr705 phosphorylation in the hypothalamus extracts of VEH and PBA-treated mice. […] We also analyzed the leptin-stimulated Stat3^Tyr705 phosphorylation in the hypothalamus of the wt mice, which were either treated with vehicle or PBA for 16 days.

[3] = test system: hypothalamus of lean mice; assay: Tunicamycin infusion to the third ventricle of lean mice; format: in vivo; conditions: leptin 1 mg/kg IP 5½ hours after third ventricle tunicamycin or vehicle infusion, 30 minutes after leptin
From the text: Having shown that ER stress is increased in the hypothalamus of HFD-fed mice and causes leptin resistance in the cellular systems, we sought to investigate whether leptin action could also be blocked by directly inducing ER stress in brains of lean mice.
Next, we investigated the expression patterns of leptin resistance markers such as neuropeptide Y (NPY) and agouti related peptide (AgRP) in the vehicle- and tunicamycin-infused mice. […] In addition, to exclude the possibility that tunicamycin infusion leads to a decay in mRNA degradation of NPY and AgRP due to a possible toxic effect, we analyzed mRNA levels of IR and insulin receptor substrate 1 (IRS1).
To assess whether increased ER stress and activation of UPR signaling would create leptin resistance and block the leptin-stimulated Stat3 activation in the hypothalamus, leptin (1 mg/kg/day) was intraperitoneally administered 5½ hours after tunicamycin infusion. The experiment was ended by dissection of the hypothalami 30 minutes after leptin administration. […] In contrast, administration of tunicamycin to the third ventricle and creation of ER stress, in complete accordance with our data obtained from 293 cells, blocked activation of Stat3 in the hypothalamus (data not shown).

[4] = test system: HFD-fed obese C57BL/6 mice; assay: PBA pretreatment and leptin in HFD-fed obese mice (bodyweight, metabolic cage, DEXA); format: in vivo
Experimental: as §1
Obesity owing to a high fat diet is fundamentally different from that seen in ob/ob mice in that it occurs in the face of high leptin levels. To determine whether PBA also sensitizes HFD-fed obese mice to leptin, mice that were kept on HFD for 25 weeks were pretreated with vehicle or PBA for 10 days, and then given leptin treatment (5 mg/kg/day). Leptin administration to the vehicle-treated group led to an acute weight loss, which was rapidly regained (FIG. 3a). By the end of treatment period, leptin created a slight but significant change in the body weight in the vehicle-treated group by reducing it from 42.42±0.27 g to 40.78±0.55 (3.8±0.9% decrease in bodyweight) (FIG. 3a,b). […] During the course of the experiment we placed the vehicle and PBA-treated groups in metabolic cages to investigate metabolic homeostasis in detail. […] Following the metabolic cage analysis we performed DEXA scan to analyze whole body fat content.

[5] = test system: LepRB signaling (LepRB, Jak2, Stat3); assay: Leptin receptor signaling in LepRB-expressing 293 cells under tunicamycin-induced ER stress; format: cell-based, Human; conditions: tunicamycin 3 μg/ml (or DMSO) 4 hours, then leptin 100 ng/ml 45 minutes
From the text: The leptin receptor belongs to the interleukin 6 (IL-6) receptor family of class I cytokine receptors^30. […] Binding of leptin to LepRb initiates a conformational change that leads to trans-autophosphorylation and activation of LepRb-associated Jak2^31,32 Activated Jak2 then phosphorylates the tyrosine residues within the LepRb/Jak2 complex to mediate downstream signaling. […] To examine whether UPR might alter the leptin signaling, LepRB-expressing 293 cells were first exposed to tunicamycin (3 μg/ml) to activate ER stress for a period of 4 hours and then treated with leptin (100 ng/ml) for 45 minutes. […] Finally, as a downstream element, leptin-stimulated Stat3 activation was analyzed.

[6] = HFD-fed mice, PBA 1 g/kg alone, 16 days, vs VEH
[7] = mice on HFD 25 weeks, leptin 5 mg/kg/day IP, 30 days, vehicle or PBA (1 g/kg/day) pretreated

Compound	BBB permeability (Fluoro-gold-labeled neurons in VMH, DMH, LHA) [1]	body weight [2, 6]	food intake [2, 6]	PERK phosphorylation in the hypothalamus ([2]; HFD-fed obese mice, PBA 1 g/kg, 16 days, vs VEH)	leptin-stimulated Stat3 Tyr705 phosphorylation in hypothalamus ([2]; HFD-fed obese mice, PBA 16 days, leptin 0.75 mg/kg IP after six-hour fast)	leptin-stimulated Stat3 Tyr705 phosphorylation in hypothalamus ([2]; ND-fed lean wt mice, PBA 16 days vs VEH, leptin IP 1 mg/kg)	Stat3 phosphorylation (activation) in the hypothalamus [3]	lean mass ([4]; HFD-fed mice, DEXA scan)	initial body weight ([4]; mice on HFD 25 weeks, before leptin 5 mg/kg/day, vehicle or PBA pretreated 10 days)	body weight at end of treatment period [4, 7]	decrease in bodyweight [4, 7]	leptin-induced Stat3 phosphorylation (Tyr705) [5]	leptin-stimulated LepRB tyrosine phosphorylation [5]
O=C(O)CCCc1ccccc1 [PBA, 4-phenyl butyric acid]	not increased	did not reduce	did not reduce	marked decrease	marked up-regulation	did not cause a higher activation	–	–	–	–	–	–	–
leptin: adipocyte-derived hormone that suppresses appetite	–	–	–	–	–	–	marked increase	does not change	42.42 ± 0.27 g	40.78 ± 0.55 g	3.8±0.9%	significant increase	marked increase
